Test results published in paper PMC4449328 (European neuropsychopharmacology : the journal of the …, 2014).

Experiments:
D3 receptor [1] = molecular target: T1, D3 receptor (Homo sapiens, UniProt P35462); settings: read-out: Ki±SEM; binding data previously reported; ref Newman et al. (2003); cited from earlier work
D3 receptor [2] = molecular target: T1, D3 receptor; assay: [3H]methylspiperone saturation binding; settings: 1 μM sulpiride (Fig. 6)
D3 dopamine receptor = D3 dopamine receptor (Homo sapiens, UniProt P35462); assay: β-arrestin recruitment assay; assay type: cell-based
Chain of D3 dopamine receptor (P35462 whole entry): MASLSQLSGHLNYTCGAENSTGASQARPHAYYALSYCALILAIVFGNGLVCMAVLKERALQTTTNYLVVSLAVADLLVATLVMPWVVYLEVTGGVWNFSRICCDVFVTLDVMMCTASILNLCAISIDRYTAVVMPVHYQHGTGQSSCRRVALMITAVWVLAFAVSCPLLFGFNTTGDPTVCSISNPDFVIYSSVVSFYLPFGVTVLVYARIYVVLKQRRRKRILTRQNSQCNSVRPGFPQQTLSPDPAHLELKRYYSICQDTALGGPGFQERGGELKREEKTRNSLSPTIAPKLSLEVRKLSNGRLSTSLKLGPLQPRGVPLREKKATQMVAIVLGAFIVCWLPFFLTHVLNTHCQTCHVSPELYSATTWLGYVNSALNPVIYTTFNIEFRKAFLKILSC

T1 sequence (P35462 whole entry): as above

Structure (SMILES)	Ki (D3 receptor [1])	Bmax of [3H]methylspiperone in presence of compound (D3 receptor [2])	Hill slope of Schild plot (D3 dopamine receptor; curve-shift of dopamine concentration response (Fig. 7), n=3–5, mean±SEM)	Hill slope of Schild plot (D3 dopamine receptor; curve-shift of dopamine concentration response (Fig. 11))
O=C(NCCCCN1CCN(c2cccc(Cl)c2Cl)CC1)c1ccc(-c2ccccn2)cc1 [CJB 090]	600 ± 200 pM			
CCN1CCCC1CNC(=O)c1cc(S(N)(=O)=O)ccc1OC (stereo not shown) [sulpiride]		6,190 fmol/mg	1.04±0.05	1.04±0.05
